Test results taken from US11510920B2, “Compositions and methods for treating EZH2-mediated cancer” (Icahn School of Medicine at Mount Sinai, priority 2016, dated 2022).

Assays:
HCC1187 cells = test: Proliferation assay (IncuCyte cell confluence), HCC1187; assay type: cell-based; conditions: Homo sapiens, concentration for 50% of maximal inhibition of cell proliferation
Description: (§1) 1-3×10^3 cells were seeded in 96-well plates in duplicates and treated at the indicated compound concentrations. Cells were monitored using the IncuCyte® live cell imaging system (Essen BioScience™, Ann Arbor, Mich.) which was placed in a cell culture incubator operated at 37° C. and 5% CO2. Cell confluence was determined using calculations derived from phase-contrast images. The concentration for 50% of maximal inhibition of cell proliferation (GI50) values were determined by fitting to a standard four-parameter logistic using GraphPad Prism® v5. Graphs depicting the GI50s of select EZH2 degraders/disruptors described here for various cancer cell lines are shown in FIGS. 4-49.

MDA-MB-468 cells = test: Proliferation assay (IncuCyte cell confluence), MDA-MB-468; assay type: cell-based; conditions: Homo sapiens, concentration for 50% of maximal inhibition of cell proliferation
Description: as §1

SMILES	GI50 (HCC1187 cells) [µM]	GI50 (MDA-MB-468 cells) [µM]
CCN(c1cc(-c2ccc(CN3CCN(CCN(CCC45CC6CC(CC(C6)C4)C5)CCC45CC6CC(CC(C6)C4)C5)CC3)cc2)cc(C(=O)NCc2c(C)cc(C)[nH]c2=O)c1C)C1CCOCC1 [CZ40-75, 4′-((4-(2-((2-((1s,3S)-adamantan-1-yl)ethyl)(2-((3R,5R,7R)-adamantan-1-yl)ethyl)amino)ethyl)piperazin-1-yl)methyl)-N-((4,6-dimethyl-2-oxo-1,2-dihydropyridin-3-yl)methyl)-5-(ethyl(tetra-hydro-2H-pyran-4-yl)amino)-4-methyl-[1,1′-biphenyl]-3-carboxamide]		1.1
CCN(c1cc(-c2ccc(CN3CCN(CCNC(=O)CCSCCC[C@@H]4/C=C(\C)C[C@H](C)C[C@H](OC)[C@H]5O[C@@](O)(C(=O)C(=O)N6CCCC[C@H]6C(=O)O[C@H](/C(C)=C/[C@@H]6CC[C@@H](O)[C@H](OC)C6)[C@H](C)[C@@H](O)CC4=O)[C@H](C)C[C@@H]5OC)CC3)cc2)cc(C(=O)NCc2c(C)cc(C)[nH]c2=O)c1C)C1CCOCC1 [CZ40-131, FK506 adduct with N-((4,6-dimethyl-2-oxo-1,2-dihydropyridin-3-yl)methyl)-5-(ethyl(tetrahydro-2H-pyran-4-yl)amino)-4′-((4-(2-(3-mercaptopropanamido)ethyl)piperazin-1-yl)methyl)-4-methyl-[1,1′-biphenyl]-3-carboxamide]		1.5
Cc1cc(C)c(CNC(=O)c2c(C)n([C@@H](C)C3CCN(CCNC(=O)CC4C5CC6CC(C5)CC4C6)CC3)c3ccccc23)c(=O)[nH]1 (stereo partly drawn) [XF042-90, 1-((S)-1-(1-(2-(2-((1R,3S,5S,7S)-adamantan-2-yl)acetamido)ethyl)piperidin-4-yl)ethyl)-N-((4,6-dimethyl-2-oxo-1,2-dihydropyridin-3-yl)methyl)-2-methyl-1H-indole-3-carboxamide]		7.2
CO[C@H]1C[C@@H](C)C/C(C)=C/[C@@H](CCCSCCC(=O)NCCN2CCC([C@H](C)n3c(C)c(C(=O)NCc4c(C)cc(C)[nH]c4=O)c4ccccc43)CC2)C(=O)C[C@H](O)[C@@H](C)[C@@H](/C(C)=C/[C@@H]2CC[C@@H](O)[C@H](OC)C2)OC(=O)[C@@H]2CCCCN2C(=O)C(=O)[C@]2(O)O[C@H]1[C@@H](OC)C[C@H]2C [XF042-92, FK506 adduct with (S)-N-((4,6-dimethyl-2-oxo-1,2-dihydropyridin-3-yl)methyl)-1-(1-(1-(2-(3-mercaptopropanamido)ethyl)piperidin-4-yl)ethyl)-2-methyl-1H-indole-3-carboxamide]		2.6
Cc1cc(C)c(CNC(=O)c2c(C)n([C@@H](C)C3CCN(CCN(CCC45CC6CC(CC(C6)C4)C5)CCC45CC6CC(CC(C6)C4)C5)CC3)c3ccccc23)c(=O)[nH]1 [XF042-93, 1-((S)-1-(1-(2-(bis(2-((3S,5S,7S)-adamantan-1-yl)ethyl)amino)ethyl)piperidin-4-yl)ethyl)-N-((4,6-dimethyl-2-oxo-1,2-dihydropyridin-3-yl)methyl)-2-methyl-1H-indole-3-carboxamide]		2.2
COc1cc(C)[nH]c(=O)c1CNC(=O)c1c(C)n([C@@H](C)C2CCN(CCN(CCC34CC5CC(CC(C5)C3)C4)CCC34CC5CC(CC(C5)C3)C4)CC2)c2ccccc12 [XF042-95, 1-((S)-1-(1-(2-(bis(2-((3S,5S,7S)-adamantan-1-yl)ethyl)amino)ethyl)piperidin-4-yl)ethyl)-N-((4-methoxy-6-methyl-2-oxo-1,2-dihydro-pyridin-3-yl)methyl)-2-methyl-1H-indole-3-carboxamide]		2.5
Cc1cc(C)c(CNC(=O)c2c(C)n([C@@H](C)C3CCN(CCNCCC45CC6CC(CC(C6)C4)C5)CC3)c3ccccc23)c(=O)[nH]1 [XF042-133, 1-((S)-1-(1-(2-((2-((3S,5S,7S)-adamantan-1-yl)ethyl)amino)ethyl)piperidin-4-yl)ethyl)-N-((4,6-dimethyl-2-oxo-1,2-dihydropyridin-3-yl)methyl)-2-methyl-1H-indole-3-carboxamide]		4.9
CO[C@H]1C[C@@H](C)C/C(C)=C/[C@@H](CCCSCCC(=O)NCCN2CCN(c3ccc(-c4cc(C(=O)NCc5c(C)cc(C)[nH]c5=O)c5cnn(C(C)C)c5c4)cn3)CC2)C(=O)C[C@H](O)[C@@H](C)[C@@H](/C(C)=C/[C@@H]2CC[C@@H](O)[C@H](OC)C2)OC(=O)[C@@H]2CCCCN2C(=O)C(=O)[C@]2(O)O[C@H]1[C@@H](OC)C[C@H]2C [XY028-086, FK506 adduct with N-((4,6-dimethyl-2-oxo-1,2-dihydropyridin-3-yl)methyl)-1-isopropyl-6-(6-(4-(2-(3-mercaptopro-panamido)ethyl)piperazin-1-yl)pyridin-3-yl)-1H-indazole-4-carboxamide]		2.4

Further lines, results first:

GI50 (HCC1187 cells) [µM]	GI50 (MDA-MB-468 cells) [µM]	SMILES
2.6		CCCc1cc(C)[nH]c(=O)c1CNC(=O)c1cc(-c2ccc(N3CCN(CCNC(=O)CCC45CC6CC(CC(C6)C4)C5)CC3)nc2)cc2c1cnn2C(C)C [AM16-11A, 6-(6-(4-(2-(3-((1r,3s)-adamantan-1-yl)propanamido)ethyl)piperazin-1-yl)pyridin-3-yl)-1-isopropyl-N-((6-methyl-2-oxo-4-propyl-1,2-dihydro-pyridin-3-yl)methyl)-1H-indazole-4-carboxamide]
2.1		CCCc1cc(C)[nH]c(=O)c1CNC(=O)c1cc(-c2ccc(N3CCN(C(=O)CC45CC6CC(CC(C6)C4)C5)CC3)nc2)cc2c1cnn2C(C)C [AM16-37A, 6-(6-(4-(2-((1s,3s)-adamantan-1-yl)acetyl)piperazin-1-yl)pyridin-3-yl)-1-isopropyl-N-((6-methyl-2-oxo-4-propyl-1,2-dihydropyridin-3-yl)methyl)-1H-indazole-4-carboxamide]
	2.5	Cc1cc(C)c(CNC(=O)c2cc(-c3ccc(N4CCN(CCNC(=O)CCOCCNc5cccc6c5C(=O)N(C5CCC(=O)NC5=O)C6=O)CC4)nc3)cc3c2cnn3C(C)C)c(=O)[nH]1 (stereo not shown) [AM29-177A, N-((4,6-dimethyl-2-oxo-1,2-dihydropyridin-3-yl)methyl)-6-(6-(4-(2-(3-(2-((2-(2,6-dioxopiperidin-3-yl)-1,3-dioxoisoindolin-4-yl)amino)ethoxy)propanamido)ethyl)piperazin-1-yl)pyridin-3-yl)-1-isopropyl-1H-indazole-4-carboxamide]
	2.3	Cc1cc(C)c(CNC(=O)c2cc(-c3ccc(N4CCN(CCNCCC56CC7CC(CC(C7)C5)C6)CC4)nc3)cc3c2c(C)cn3C(C)C)c(=O)[nH]1 [AM41-41A, 6-(6-(4-(2-((2-((3r,5r,7r)-adamantan-1-yl)ethyl)amino)ethyl)piperazin-1-yl)pyridin-3-yl)-N-((4,6-dimethyl-2-oxo-1,2-dihydropyridin-3-yl)methyl)-1-isopropyl-3-methyl-1H-indole-4-carboxamide]
	1.8	CCN(c1cc(-c2ccc(CN3CCN(CCNCCC45CC6CC(CC(C6)C4)C5)CC3)cc2)cc(C(=O)NCc2c(C)cc(C)[nH]c2=O)c1C)C1CCOCC1 [CZ40-149, 4′-((4-(2-((2-((1s,3s)-adamantan-1-yl)ethyl)amino)ethyl)piperazin-1-yl)methyl)-N-((4,6-dimethyl-2-oxo-1,2-dihydropyridin-3-yl)methyl)-5-(ethyl(tetra-hydro-2H-pyran-4-yl)amino)-4-methyl-[1,1′-biphenyl]-3-carboxamide]
